From ChEMBL document CHEMBL3045943, “Novel N-aryl(alkaryl)-2-[(3-R-2-oxo-2H-[1,2,4]triazino[2,3-c]quinazoline-6-yl)thio]acetamides: synthesis, cytotoxicity, anticancer activity, COMPARE analysis and docking” (2013)

Key:
Type in all cases: functional
BT-549 = assay: Cytotoxicity against Homo sapiens (human) BT549 cells after 48 hr by SRB assay; details: BT-549, 48 h
DU-145 = assay: Cytotoxicity against Homo sapiens (human) DU145 cells assessed as cell growth at 10 uM after 48 hr by SRB assay relative to control; details: DU-145, 48 h, read-out: Activity
SF-295 = assay: Cytotoxicity against Homo sapiens (human) SF295 cells assessed as cell growth at 10 uM after 48 hr by SRB assay relative to control; details: SF-295, 48 h, read-out: Activity
[1] = test system: Photobacterium leiognathi; assay: Growth inhibition of Photobacterium leiognathi Sh1 assessed as bio-luminescence at 0.25 mg/ml after 10 min by acute action test relative to control; set-up: scale not given: the % may be the effect or the level left
HL-60(TB) = assay: Cytotoxicity against Homo sapiens (human) HL-60(TB) cells assessed as cell growth at 10 uM after 48 hr by SRB assay relative to control; details: HL-60, 48 h, read-out: Activity
NCI-H460 = assay: Cytotoxicity against Homo sapiens (human) NCI-H460 cells assessed as cell growth at 10 uM after 48 hr by SRB assay relative to control; details: NCI-H460, 48 h, read-out: Activity
SW-620 = assay: Cytotoxicity against Homo sapiens (human) SW620 cells assessed as cell growth at 10 uM after 48 hr by SRB assay relative to control; details: SW-620, 48 h, read-out: Activity
HOP-62 = assay: Cytotoxicity against Homo sapiens (human) HOP62 cells after 48 hr by SRB assay; details: HOP-62, 48 h
[2] = test system: Photobacterium leiognathi; assay: Growth inhibition of Photobacterium leiognathi Sh1 assessed as bio-luminescence at 0.025 mg/ml after 16 to 18 hr by chronic action test relative to control; set-up: scale not given: the % may be the effect or the level left
[3] = test system: Photobacterium leiognathi; assay: Growth inhibition of Photobacterium leiognathi Sh1 assessed as bio-luminescence at 0.025 mg/ml after 10 min by acute action test relative to control; set-up: scale not given: the % may be the effect or the level left
HOP-92 = assay: Cytotoxicity against Homo sapiens (human) HOP92 cells assessed as cell growth at 10 uM after 48 hr by SRB assay relative to control; details: HOP-92, 48 h, read-out: Activity
[4] = test system: Photobacterium leiognathi; assay: Growth inhibition of Photobacterium leiognathi Sh1 assessed as bio-luminescence at 0.1 mg/ml after 16 to 18 hr by chronic action test relative to control; set-up: scale not given: the % may be the effect or the level left
HCT-116 = assay: Cytotoxicity against Homo sapiens (human) HCT116 cells assessed as cell growth at 10 uM after 48 hr by SRB assay relative to control; details: HCT-116, 48 h, read-out: Activity
UO-31 = assay: Cytotoxicity against Homo sapiens (human) UO31 cells after 48 hr by SRB assay; details: UO-31, 48 h
K562 = assay: Cytotoxicity against Homo sapiens (human) K562 cells assessed as cell growth at 10 uM after 48 hr by SRB assay relative to control; details: K562, 48 h, read-out: Activity
MDA-MB-435 = assay: Cytotoxicity against Homo sapiens (human) MDA-MB-435 cells assessed as cell growth at 10 uM after 48 hr by SRB assay relative to control; details: MDA-MB-435, 48 h, read-out: Activity
CCRF-CEM = assay: Cytotoxicity against Homo sapiens (human) CCRF-CEM cells assessed as cell growth at 10 uM after 48 hr by SRB assay relative to control; details: read-out: Activity
[5] = test system: Photobacterium leiognathi; assay: Growth inhibition of Photobacterium leiognathi Sh1 assessed as bio-luminescence at 0.25 mg/ml after 16 to 18 hr by chronic action test relative to control; set-up: scale not given: the % may be the effect or the level left
[6] = Cytotoxicity against Homo sapiens (human) […] cells assessed as cell growth at 10 uM after 48 hr by SRB assay relative to control; details: read-out: Activity
LOX IMVI = assay: Cytotoxicity against Homo sapiens (human) LOXIMVI cells assessed as cell growth at 10 uM after 48 hr by SRB assay relative to control; details: read-out: Activity
SR = assay: Cytotoxicity against Homo sapiens (human) SR cells assessed as cell growth at 10 uM after 48 hr by SRB assay relative to control; details: read-out: Activity
A498 = assay: Cytotoxicity against Homo sapiens (human) A498 cells after 48 hr by SRB assay; details: A498, 48 h
KM12 = assay: Cytotoxicity against Homo sapiens (human) KM12 cells assessed as cell growth at 10 uM after 48 hr by SRB assay relative to control; details: KM12, 48 h, read-out: Activity
SNB-75 [7] = assay: Cytotoxicity against Homo sapiens (human) SNB75 cells after 48 hr by SRB assay; details: SNB-75, 48 h
MOLT-4 = assay: Cytotoxicity against Homo sapiens (human) MOLT4 cells assessed as cell growth at 10 uM after 48 hr by SRB assay relative to control; details: MOLT-4, 48 h, read-out: Activity
OVCAR-3 = assay: Cytotoxicity against Homo sapiens (human) OVCAR3 cells assessed as cell growth at 10 uM after 48 hr by SRB assay relative to control; details: OVCAR-3, 48 h, read-out: Activity
A549 = assay: Cytotoxicity against Homo sapiens (human) A549 cells assessed as cell growth at 10 uM after 48 hr by SRB assay relative to control; details: A549, 48 h, read-out: Activity
[8] = test system: Photobacterium leiognathi; assay: Growth inhibition of Photobacterium leiognathi Sh1 assessed as bio-luminescence at 0.1 mg/ml after 10 min by acute action test relative to control; set-up: scale not given: the % may be the effect or the level left
PC-3 = assay: Cytotoxicity against Homo sapiens (human) PC3 cells assessed as cell growth at 10 uM after 48 hr by SRB assay relative to control; details: PC-3, 48 h, read-out: Activity
U-251 = assay: Cytotoxicity against Homo sapiens (human) U251 cells assessed as cell growth at 10 uM after 48 hr by SRB assay relative to control; details: U-251, 48 h, read-out: Activity
786-0 = assay: Cytotoxicity against Homo sapiens (human) 786-0 cells assessed as cell growth at 10 uM after 48 hr by SRB assay relative to control; details: 786-0, 48 h, read-out: Activity
SF-268 = assay: Cytotoxicity against Homo sapiens (human) SF268 cells assessed as cell growth at 10 uM after 48 hr by SRB assay relative to control; details: SF-268, 48 h, read-out: Activity
SF-539 = assay: Cytotoxicity against Homo sapiens (human) SF539 cells assessed as cell growth at 10 uM after 48 hr by SRB assay relative to control; details: SF-539, 48 h, read-out: Activity
NCI-H522 = assay: Cytotoxicity against Homo sapiens (human) NCI-H522 cells assessed as cell growth at 10 uM after 48 hr by SRB assay relative to control; details: NCI-H522, 48 h, read-out: Activity
SNB-75 [9] = assay: Cytotoxicity against Homo sapiens (human) SNB75 cells assessed as cell growth at 10 uM after 48 hr by SRB assay relative to control; details: SNB-75, 48 h, read-out: Activity
HT-29 = assay: Cytotoxicity against Homo sapiens (human) HT-29 cells assessed as cell growth at 10 uM after 48 hr by SRB assay relative to control; details: HT-29, 48 h, read-out: Activity
HCT-15 = assay: Cytotoxicity against Homo sapiens (human) HCT15 cells assessed as cell growth at 10 uM after 48 hr by SRB assay relative to control; details: HCT-15, 48 h, read-out: Activity

## O=C(CSc1nc2ccccc2c2nc(=O)c(-c3ccccc3)nn12)NCc1ccccc1
BT-549
  GI50: 3.02 µM
  LC50: > 100 µM
BT-549; read-out: pTGI (converted)
  TGI: 7.76 µM
DU-145
  growth at 10 µM: 21.8%
SF-295
  growth at 10 µM: 55.7%
[1]
  Activity: 100%
HL-60(TB)
  growth at 10 µM: 51.6%
NCI-H460
  growth at 10 µM: 1.57%
SW-620
  growth at 10 µM: 19.4%
HOP-62
  GI50: 2.75 µM
  LC50: 30.2 µM
HOP-62; read-out: pTGI (converted)
  TGI: 7.08 µM
[2]
  Activity: 84.9%
[3]
  Activity: 125%
HOP-92
  growth at 10 µM: 24.6%
[4]
  Activity: 113.6%
HCT-116
  growth at 10 µM: 48.6%
UO-31
  GI50: 2.57 µM
  LC50: > 100 µM
UO-31; read-out: pTGI
  TGI: > 100 µM
K562
  growth at 10 µM: 29.7%
MDA-MB-435
  growth at 10 µM: 21.7%
CCRF-CEM
  growth at 10 µM: 37.9%
[5]
  Activity: 78.2%
[6]
  growth at 10 µM: 44.5%
LOX IMVI
  growth at 10 µM: 29.5%
SR
  growth at 10 µM: 41.9%
A498
  GI50: 0.0269 µM
  LC50: > 100 µM
A498; read-out: pTGI (converted)
  TGI: 37.2 µM
KM12
  growth at 10 µM: 12%
SNB-75 [7]
  GI50: 2.19 µM
  LC50: 43.7 µM
SNB-75 [7]; read-out: pTGI (converted)
  TGI: 13.5 µM
MOLT-4
  growth at 10 µM: 43%
OVCAR-3
  growth at 10 µM: 13.7%
A549
  growth at 10 µM: 12.8%
[8]
  Activity: 112.5%
PC-3
  growth at 10 µM: 18.1%
U-251
  growth at 10 µM: 30.1%
786-0
  growth at 10 µM: -7.56%
SF-268
  growth at 10 µM: 53.1%

## O=C(CSc1nc2ccccc2c2nc(=O)c(-c3ccccc3)nn12)NCc1ccccc1Cl
[1]
  Activity: 155%
SF-539
  growth at 10 µM: 9.93%
[2]
  Activity: 93%
[3]
  Activity: 108.3%
HOP-92
  growth at 10 µM: 44.8%
[4]
  Activity: 133.3%
HCT-116
  growth at 10 µM: 7.01%
[5]
  Activity: 110%
LOX IMVI
  growth at 10 µM: 27.9%
SR
  growth at 10 µM: 47.4%
OVCAR-3
  growth at 10 µM: 47.9%
[8]
  Activity: 80%
NCI-H522
  growth at 10 µM: 43.2%

## COc1ccc(-c2nn3c(SCC(=O)Nc4ccccc4C(F)(F)F)nc4ccccc4c3nc2=O)cc1
[1]
  Activity: 113.4%
[2]
  Activity: 185.2%
[3]
  Activity: 97.8%
[4]
  Activity: 200%
[5]
  Activity: 102.9%
[6]
  growth at 10 µM: 85.1%
[8]
  Activity: 106.5%

## Cc1ccc(-c2nn3c(SCC(=O)Nc4ccccc4C)nc4ccccc4c3nc2=O)cc1
SNB-75 [9]
  growth at 10 µM: 46.7%
[1]
  Activity: 193.5%
[2]
  Activity: 100%
[3]
  Activity: 119.7%
[4]
  Activity: 66.7%
CCRF-CEM
  growth at 10 µM: -49.6%
[5]
  Activity: 93.3%
[8]
  Activity: 109.7%
U-251
  growth at 10 µM: 63.5%

## Cc1ccc(-c2nn3c(SCC(=O)Nc4ccccc4F)nc4ccccc4c3nc2=O)cc1
[1]
  Activity: 47.83%
HL-60(TB)
  growth at 10 µM: 84.4%
[2]
  Activity: 112.5%
[3]
  Activity: 89.86%
[4]
  Activity: 87.5%
K562
  growth at 10 µM: 77.5%
CCRF-CEM
  growth at 10 µM: 76.8%
[5]
  Activity: 100%
[6]
  growth at 10 µM: 94.4%
SR
  growth at 10 µM: 73.7%
MOLT-4
  growth at 10 µM: 82.3%
[8]
  Activity: 86.96%

## Cc1ccc(-c2nn3c(SCC(=O)Nc4cccc(C(F)(F)F)c4)nc4ccccc4c3nc2=O)cc1
[1]
  Activity: 83.3%
SF-539
  growth at 10 µM: 80.8%
[2]
  Activity: 118.2%
[3]
  Activity: 61.1%
HOP-92
  growth at 10 µM: 71%
[4]
  Activity: 81.5%
[5]
  Activity: 200%
SR
  growth at 10 µM: 66.5%
[8]
  Activity: 78.8%

## Cc1nn2c(SCC(=O)NCc3ccccc3Cl)nc3ccccc3c2nc1=O
[1]
  Activity: 142.9%
[2]
  Activity: 148.9%
[3]
  Activity: 91.7%
[4]
  Activity: 180.9%
MDA-MB-435
  growth at 10 µM: 79.8%
[5]
  Activity: 125%
[8]
  Activity: 110%
NCI-H522
  growth at 10 µM: 79.9%

## COc1ccc(-c2nn3c(SCC(=O)Nc4ccccc4F)nc4ccccc4c3nc2=O)cc1
[1]
  Activity: 40%
HL-60(TB)
  growth at 10 µM: 67.9%
HT-29
  growth at 10 µM: 67.8%
SW-620
  growth at 10 µM: 65.6%
[2]
  Activity: 100%
[3]
  Activity: 90%
[4]
  Activity: 96.67%
HCT-116
  growth at 10 µM: 56.7%
K562
  growth at 10 µM: 60.2%
CCRF-CEM
  growth at 10 µM: 67.5%
[5]
  Activity: 100%
[6]
  growth at 10 µM: 67.6%
SR
  growth at 10 µM: 48.2%
KM12
  growth at 10 µM: 51.3%
MOLT-4
  growth at 10 µM: 52.7%
[8]
  Activity: 84%
HCT-15
  growth at 10 µM: 92.2%
